Paper PMC8494917 (2021)
Values belong to the compound of their own block, whether it stands above or below them.

Assays:
[1] = test system: Bs-preQ1-RS (RNA, riboswitch) AGAGGUUCUAGCUACACCCUCUAUAAAAAACUAA; assay: UV photocrosslinking, denaturing PAGE; details: 100 mM K+, 2 mM Mg2+, 50 mM Tris pH 7.5, 5% DMSO, room temperature, 5 µM RNA, 250 µM compound, covalent
[2] = test system: Bs-preQ1-RS full length (RNA, riboswitch) GCGGGAGAGGUUCUAGCUACACCCUCUAUAAAAAACUAGGACGAGCUGUAUCCUUGGAUACGGCCUUUU; assay: competition of photocrosslinking, TAMRA click labelling, PAGE; details: 100 mM K+, 2 mM Mg2+; probe 11 (250 µM) displaced by 500-1000 µM PreQ1, in MCF-7 total RNA
[3] = test system: Ss-preQ1-RS (RNA, riboswitch) AGAGGUUCCUAGCUGAUACCCUCUAUAAAAAACUA; assay: competition of photocrosslinking, PAGE; details: 100 mM K+, 2 mM Mg2+; 50 mM Tris pH 7.5; probe 11 (250 µM) displaced by 125-1250 µM PreQ1
[4] = test system: Cy5-Tt-preQ1-RS (RNA, riboswitch) CUGGGUCGCAGUAACCCCAGUUAACAAAACAAG; assay: microscale thermophoresis; details: 100 mM K+, 2 mM Mg2+, 50 mM Tris-HCl pH 7.5, 5% DMSO, room temperature, 100 nM RNA
[5] = test system: Cy5-Bs-preQ1-RS (RNA, riboswitch) AGAGGUUCUAGCUACACCCUCUAUAAAAAACUAA; assay: microscale thermophoresis; details: 100 mM K+, 2 mM Mg2+, 50 mM Tris-HCl pH 7.5, 5% DMSO, room temperature, 100 nM RNA
[6] = test system: Ss-preQ1-RS (RNA, riboswitch) AGAGGUUCCUAGCUGAUACCCUCUAUAAAAAACUA; assay: UV photocrosslinking, MALDI-TOF; details: 100 mM K+, 2 mM Mg2+; 10 µM RNA, 500 µM compound; covalent
[7] = test system: Tt-preQ1-RS(G11A) (RNA, riboswitch) CUGGGUCGCAAUAACCCCAGUUAACAAAACAAG; assay: UV photocrosslinking, denaturing PAGE; details: 100 mM K+, 2 mM Mg2+; 50 mM Tris pH 7.5; 10 µM RNA, 500 µM compound; covalent; similar to wild type
[8] = test system: Tt-preQ1-RS (RNA, riboswitch) CUGGGUCGCAGUAACCCCAGUUAACAAAACAAG; assay: X-ray crystallography, 2.80 Å; details: without photocrosslinking
[9] = test system: miR21-hp (RNA, miRNA) GGGUUGACUGUUGAAUCUCAUGGCAACCC; assay: UV photocrosslinking, denaturing PAGE; details: 100 mM K+, 2 mM Mg2+; 50 mM Tris pH 7.5; 50:1 compound:RNA; covalent crosslink not detected
[10] = test system: Ss-preQ1-RS (RNA, riboswitch) AGAGGUUCCUAGCUGAUACCCUCUAUAAAAAACUA; assay: UV photocrosslinking, denaturing PAGE; details: 100 mM K+, 2 mM Mg2+; 50 mM Tris pH 7.5, room temperature; 5 µM RNA, 25-250 µM compound; covalent
[11] = test system: Tt-preQ1-RS (ab 13_14) (RNA, riboswitch, abasic at 13 and 14) CUGGGUCGCAGUNNCCCCAGUUAACAAAACAAG; assay: X-ray crystallography, 1.57 Å; details: without photocrosslinking
[12] = test system: SAM-II-WT-RS (RNA, riboswitch) UCGCGCUGAUUUAACCGUAUUGCAAGCGCGUGAUAAAUGUAGCUAAAAAGGG; assay: UV photocrosslinking, denaturing PAGE; details: 100 mM K+, 2 mM Mg2+; 50 mM Tris pH 7.5; 50:1 compound:RNA; covalent crosslink not detected
[13] = test system: Tt-preQ1-RS(G5A) (RNA, riboswitch) CUGGAUCGCAGUAACCCCAGUUAACAAAACAAG; assay: UV photocrosslinking, denaturing PAGE; details: 100 mM K+, 2 mM Mg2+; 50 mM Tris pH 7.5; 10 µM RNA, 500 µM compound; covalent; similar to wild type
[14] = test system: Bs-preQ1-RS full length (RNA, riboswitch) GCGGGAGAGGUUCUAGCUACACCCUCUAUAAAAAACUAGGACGAGCUGUAUCCUUGGAUACGGCCUUUU; assay: UV photocrosslinking, TAMRA click labelling, PAGE; details: 100 mM K+, 2 mM Mg2+; 50 mM Tris pH 7.5, 5% DMSO; 1 µM RNA, 250 µM compound; covalent
[15] = test system: Tt-preQ1-RS(G4A) (RNA, riboswitch) CUGAGUCGCAGUAACCCCAGUUAACAAAACAAG; assay: UV photocrosslinking, denaturing PAGE; details: 100 mM K+, 2 mM Mg2+; 50 mM Tris pH 7.5; 10 µM RNA, 500 µM compound; covalent; about 40% less than wild type

Compound: Nc1nc2[nH]cc(CNCCOCCOCCOCCNCc3ccc(C4(C(F)(F)F)N=N4)cc3)c2c(=O)[nH]1
% Crosslink efficiency [1]: 19.4 ± 4.4%

Compound: Nc1nc2[nH]cc(CNCc3ccc(C4(C(F)(F)F)N=N4)cc3)c2c(=O)[nH]1
binding ([1]; trace only): weak

Compound: Nc1nc2[nH]cc(CNCCOCCOCCNCc3ccc(C4(C(F)(F)F)N=N4)cc3)c2c(=O)[nH]1
% Crosslink efficiency [1]: 22.0 ± 2.2%

Compound: C#CCCC1(CCC(=O)NCc2c[nH]c3nc(N)[nH]c(=O)c23)N=N1
% Crosslink efficiency [1]: 39.9 ± 5.3%

Compound: Nc1nc2[nH]cc(CNCCC3(CCc4cn(CCOCCOCCOCCNC(=O)CCCC[C@@H]5SC[C@@H]6NC(=O)N[C@@H]65)nn4)N=N3)c2c(=O)[nH]1
binding [6]: yes

Continued, values first:

binding [2]: yes | binding [3]: yes | apparent dissociation constant [4]: 0.193 ± 0.04523 µM | apparent dissociation constant [5]: 0.243 ± 0.01639 µM
Compound: NCc1c[nH]c2nc(N)[nH]c(=O)c12

% Crosslink efficiency [1]: 49.2 ± 3.2%
Compound: CC1(CCC(=O)NCc2c[nH]c3nc(N)[nH]c(=O)c23)N=N1

binding [7]: yes | binding [8]: yes | binding [9]: no | binding [10]: yes | apparent dissociation constant ([4]; about 50 x K of PreQ1): 11.03 ± 2.98 µM | binding [11]: yes | binding [12]: no | % Crosslink efficiency [1]: 31.3 ± 2.9% | binding [13]: yes | binding [14]: yes | binding [15]: yes | apparent dissociation constant ([5]; about 50 x K of PreQ1): 8.25 ± 2.56 µM
Compound: C#CCCC1(CCNCc2c[nH]c3nc(N)[nH]c(=O)c23)N=N1
